From ChEMBL document CHEMBL1201862, “PubChem BioAssay data set” (2004)
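Interpolation was linear, between the two tested concentrations surrounding the appropriate level; five concentrations were tested over 48 hours in 96-well plates. GI50 = concentration required for 50% inhibition of growth.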 Activity calls are given as the source filed them. Rule as the data show it: active = GI50 up to about 1.1 µM and inactive = higher.

How the values were obtained:
Assay in all cases: DTP human tumour cell line panel, 48 h
CAKI-1 = test system: CAKI-1
RPMI-8226 = test system: RPMI-8226
786-0 = test system: 786-0
K562 = test system: K562
PC-3 = test system: PC-3
SN12C = test system: SN12C
UACC-62 = test system: UACC-62
NCI-H522 = test system: NCI-H522
DU-145 = test system: DU-145
LOX IMVI = test system: LOX IMVI
EKVX = test system: EKVX
UACC-257 = test system: UACC-257
A498 = test system: A498
HCT-15 = test system: HCT-15
NCI/ADR-RES = test system: NCI/ADR-RES
OVCAR-4 = test system: OVCAR-4
OVCAR-8 = test system: OVCAR-8
SK-MEL-2 = test system: SK-MEL-2
HCC 2998 = test system: HCC 2998

COc1cc([C@@H]2c3cc4c(cc3C[C@@H]3COC(=O)C32)OCO4)cc(OC)c1O (some centres undefined)
GI50 (CAKI-1): 0.0183 µM (active)
GI50 (RPMI-8226): 0.0269 µM (active)
GI50 (786-0): 0.0299 µM (active)
GI50 (K562): 0.031 µM (active)
GI50 (PC-3): 0.0234 µM (active)
GI50 (SN12C): 0.143 µM (active)
GI50 (UACC-62): 0.0263 µM (active)
GI50 (NCI-H522): 0.0119 µM (active)
GI50 (DU-145): 0.0973 µM (active)
GI50 (LOX IMVI): 0.0426 µM (active)
GI50 (EKVX): 0.0284 µM (active)
GI50 (UACC-257): 87.7 µM (inactive)
GI50 (A498): 0.211 µM (active)
GI50 (HCT-15): 0.0294 µM
GI50 (NCI/ADR-RES): 0.0187 µM (active)

CC1OC(=O)c2ccccc2NC1=O (centres undefined)
GI50 (CAKI-1): > 100 µM (inactive)
GI50 (RPMI-8226): > 100 µM (inactive)
GI50 (786-0): > 100 µM (inactive)
GI50 (K562): > 100 µM (inactive)
GI50 (PC-3): > 100 µM (inactive)
GI50 (SN12C): > 100 µM (inactive)
GI50 (UACC-62): > 100 µM (inactive)
GI50 (NCI-H522): > 100 µM (inactive)
GI50 (DU-145): > 100 µM (inactive)
GI50 (LOX IMVI): > 100 µM (inactive)
GI50 (OVCAR-4): > 100 µM (inactive)
GI50 (EKVX): > 100 µM (inactive)
GI50 (UACC-257): > 100 µM (inactive)
GI50 (OVCAR-8): > 100 µM (inactive)
GI50 (A498): > 100 µM (inactive)
GI50 (HCT-15): > 100 µM
GI50 (NCI/ADR-RES): > 100 µM (inactive)
GI50 (SK-MEL-2): > 100 µM (inactive)

CC(=O)OCC(=O)[C@@]1(O)CC[C@H]2[C@@H]3CCC4=CC(=O)[C@H](C)C[C@]4(C)[C@H]3[C@@H](O)C[C@@]21C
GI50 (CAKI-1): > 100 µM (inactive)
GI50 (RPMI-8226): > 100 µM (inactive)
GI50 (786-0): > 100 µM (inactive)
GI50 (K562): > 100 µM (inactive)
GI50 (SN12C): > 100 µM (inactive)
GI50 (HCC 2998): > 100 µM (inactive)
GI50 (UACC-62): > 100 µM (inactive)
GI50 (NCI-H522): > 100 µM (inactive)
GI50 (LOX IMVI): > 100 µM (inactive)
GI50 (OVCAR-4): > 100 µM (inactive)
GI50 (EKVX): > 100 µM (inactive)
GI50 (UACC-257): > 100 µM (inactive)
GI50 (OVCAR-8): > 100 µM (inactive)
GI50 (A498): > 100 µM (inactive)
GI50 (HCT-15): > 100 µM
GI50 (SK-MEL-2): > 100 µM (inactive)

CN(/N=C/c1cccc2cccnc12)c1ccc(Cl)cc1[N+](=O)[O-]
GI50 (CAKI-1): 45.2 µM (inactive)
GI50 (RPMI-8226): > 100 µM (inactive)
GI50 (786-0): > 100 µM (inactive)
GI50 (K562): > 100 µM (inactive)
GI50 (PC-3): > 100 µM (inactive)
GI50 (SN12C): > 100 µM (inactive)
GI50 (HCC 2998): > 100 µM (inactive)
GI50 (UACC-62): > 100 µM (inactive)
GI50 (NCI-H522): > 100 µM (inactive)
GI50 (DU-145): > 100 µM (inactive)
GI50 (OVCAR-4): > 100 µM (inactive)
GI50 (EKVX): > 100 µM (inactive)
GI50 (UACC-257): > 100 µM (inactive)
GI50 (OVCAR-8): > 100 µM (inactive)
GI50 (A498): > 100 µM (inactive)
GI50 (HCT-15): > 100 µM
GI50 (NCI/ADR-RES): 87.1 µM (inactive)
GI50 (SK-MEL-2): > 100 µM (inactive)

COC(=O)Cc1cccc2c(=O)c(S(=O)(=O)NC(=O)Nc3ccc(Cl)cc3)c(-c3ccccc3)oc12
GI50 (CAKI-1): 24.3 µM (inactive)
GI50 (786-0): > 100 µM (inactive)
GI50 (K562): 4.3 µM (inactive)
GI50 (PC-3): 16.3 µM (inactive)
GI50 (SN12C): 36.6 µM (inactive)
GI50 (HCC 2998): 54.6 µM (inactive)
GI50 (UACC-62): 13.5 µM (inactive)
GI50 (NCI-H522): 16.4 µM (inactive)
GI50 (DU-145): > 100 µM (inactive)
GI50 (LOX IMVI): 13.5 µM (inactive)
GI50 (OVCAR-4): > 100 µM (inactive)
GI50 (EKVX): > 100 µM (inactive)
GI50 (UACC-257): 87.5 µM (inactive)
GI50 (OVCAR-8): 69.3 µM (inactive)
GI50 (HCT-15): 8.75 µM
GI50 (NCI/ADR-RES): > 100 µM (inactive)

CC(C)NC(=O)CCN(C(=O)O)S(=O)(=O)c1ccc(NC(=O)c2ccccc2)cc1
GI50 (CAKI-1): > 100 µM (inactive)
GI50 (RPMI-8226): 34.8 µM (inactive)
GI50 (786-0): > 79.6 µM (inactive)
GI50 (K562): > 43.7 µM (inactive)
GI50 (SN12C): > 100 µM (inactive)
GI50 (HCC 2998): > 100 µM (inactive)
GI50 (UACC-62): > 45.5 µM (inactive)
GI50 (NCI-H522): > 100 µM (inactive)
GI50 (LOX IMVI): 39.9 µM (inactive)
GI50 (OVCAR-4): > 100 µM (inactive)
GI50 (EKVX): > 100 µM (inactive)
GI50 (UACC-257): > 51.9 µM (inactive)
GI50 (OVCAR-8): > 54.5 µM (inactive)
GI50 (A498): > 100 µM (inactive)
GI50 (HCT-15): > 42.2 µM
GI50 (SK-MEL-2): > 100 µM (inactive)
